2 compounds from US12202805B2, “Process for preparing (5S)-{[2-(4-carboxyphenyl)ethyl] |2-(2-{|3-chloro-4'-(trifluoromethyl)biphenyl-4-yl]methoxy}phenyl)ethyl]aminol-5,6,7,8-tetrahydroquinoline-2-carboxylic acid and its crystalline forms for use as pharmaceutically active compound” (Bayer Aktiengesellschaft, priority 2021, dated 2025) can be followed below.

A short description of series [1]: Protein binding via Transil assay, monkey plasma. It counts as in vitro ADME. Here is the method: Protein Binding of Comparative Example 11 and Comparative Example 1 was Analyzed Via Transil Assay, Described Below.
The distribution of a test substance between Transil® (phosphatidylcholine lipid bilayers immobilized on silica beads) and plasma is a characteristic feature of any pharmaceutical compound and is dependent on its extent of binding to plasma proteins. By comparing the distribution between Transil® and buffer with the distribution between Transil® and plasma of any species of interest, the unbound fraction in the plasma of the respective animal species can be calculated in vitro. The respective plasma and buffer concentrations were determined via a radioactivity analysis. A detailed description of the method and its validation was published by Schuhmacher et al. (2).

In another series the test system is PAH-minipig model. In words: PAH-minipig model on top of PAH standard-of-care. It counts as in vivo. To be noted: inhaled; SoC e.g. bosentan, sildenafil, Ilomedin, riociguat.
Series [2] is described as follows: Determination of thermal stability (solid, 7 days at 90° C., HPLC). To be noted: HPLC peak areas. The class given is physicochemical. How it is done: Determination of thermal stability of comparative example 11:
0.3 mg of the comparative example 11 were solved in 0.1 ml dimethylsulfoxide and 0.4 ml acetonitrile. Then 1.0 ml water was added. For complete dissolution the HPLC vial was shaken and sonicated. This solution was immediately analyzed by HPLC (reference at t0). 0.3 mg of the test compound was weighed into another HPLC vial. The vial was capped and stored for 7 days in a heating block at 90° C.
After this time the vial was decapped and 0.1 ml dimethylsulfoxide and 0.4 ml acetonitrile were added to the stressed compound. Then 1.0 ml water was added. For complete dissolution the HPLC vial was shaken and sonicated. The sample was analyzed by HPLC (sample after 1 week). The peak areas in percentage are used for quantification.

A short description of series [3]: E-2.1 plasma concentrations over time after inhalation in healthy male subjects. The class given is in vivo, human. To be noted: all doses administered. Here is the method:
(§1) Healthy White male subjects, aged 18 to 45 years and with a body mass index (BMI) above/equal 18.5 and below/equal 29.9 kg/m2 were treated in a clinical pharmacological phase I study on seven days with inhaled once daily doses of 480 μg or 1000 μg or 2000 μg (2 capsules of 1000 μg) (nominal dose) of dry powder formulations comprising example 2 or Placebo. The subjects inhaled the drug powder from capsules (see under C-1, e.g. tables 22 and 23) inserted into a handheld inhalation device by one deep inhalative breath. The dry powder formulation of the drug is dispersed into the airstream and fine particles are transported into the deep parts of the lung where it is intended to cause a vasodilation of the blood vessels in PH patients for a substantial reduction of increased blood pressure in the central pulmonary blood vessels in PAH patients or other subtypes of PH. This effect cannot be shown in subjects with healthy lungs. In addition inhaled drug causes a dilation of the bronchial airways and thus also improves disease states of lung diseases in PH patients with pathological bronchoconstriction. This effect was measured via bodyplethysmography as reduction of Specific Airway Resistance in healthy subjects. […]

Another series deals with healthy male subjects. In words: E-2.1 bodyplethysmography: total specific airway resistance (sRaw) in healthy male subjects. It counts as in vivo, human. How it is done:
as §1

Molecules are shown by their SMILES.

Regarding `O=C(O)c1ccc(CCN(CCc2ccccc2OCc2ccc(-c3ccc(C(F)(F)F)cc3)cc2Cl)[C@H]2CCCc3nc(C(=O)O)ccc32)cc1` [comparative example 11, (5S)-5-{[2-(4-carboxyphenyl)ethyl][2-(2-{[3-chloro-4′-(trifluoromethyl)[biphenyl]-4-yl]methoxy}phenyl)ethyl]amino}-5,6,7,8-tetrahydroquinoline-2-carboxylic acid], in series [1], the “free fraction, times lower than comparative example 1” value is 2 times. In addition, the “effect on elevated PAP on top of PAH standard-of-care” value in the series with PAH-minipig model is reported as “selectively decreased elevated PAP”. In series [2], the thermal stability result is on record as “stable”.

With `O=C(O)c1ccc(CCN(CCc2ccccc2OCc2ccc(-c3ccc(C(F)(F)F)cc3)cc2Cl)[C@H]2CCCc3nc(C(=O)O)ccc32)cc1` [example 2, (5S)—{[2-(4-Carboxyphenyl)ethyl][2-(2-{[3-chloro-4′-(trifluoromethyl)biphenyl-4-yl]methoxy}phenyl)-ethyl]amino}-5,6,7,8-tetrahydroquinoline-2-carboxylic acid as Monohydrate II], the “persistence of measurable plasma concentration after first inhalation” value in series [3] was found to be 48 h. The “total specific airway resistance” value with healthy male subjects (480 μg, 0 D 06 H 00 M) is given as 0.800 ± 0.187 kPa/sec; with healthy male subjects (2000 μg, 7 D 06 H 00 M) it was 0.730 ± 0.151 kPa/sec.
